Data: US20050288360A1, “Nutraceutical compositions comprising epigallocatechin gallate and raspberry ketone” (priority 2002, published 2005)
Marks after values point to notes of the source that are not given here.

How the values were obtained:
[1] = test system: C57BL6/J mice fed a high fat, high sucrose diet; assay: 4-week body weight study in diet-induced obese mice; type: in vivo; conditions: for Body weight compared to control mice (in words): 4 week study period; for Body weight compared to control mice (in words) / Body weight, Initial / Body weight, Week 2 / Body weight, Week 4: high fat high sucrose diet; for Body weight, Initial: baseline, male C57BL6/J mice; for Body weight, Initial / Body weight, Week 2 / Body weight, Week 4: feed-ad-mix 1400 mg/kg BW/day each, group mean; for Body weight decrease, Week 2 / Body weight decrease, Week 4: decrease in comparison to control group, 1400 mg/kg BW/day each
Experimental: The efficacy of the combination of EGCG and RK as well as of both compounds alone on body weight and adiposity was tested in a 4-week study in C57BL6/J mice fed a high fat, high sucrose diet (n=8-11/group). This model of diet-induced obesity and early type 2 diabetes is widely used to determine the efficacy of anti-obesity compounds. Male C57BL6/J mice were obtained from Jackson Laboratory (Bar Harbor, Me., USA). Adult mice aged […] were used in the experiment. Mice were housed individually in plastic cages with bedding and allowed free access to a high fat, high sucrose mouse diet (Kliba # 2154, Klibamuehle, Kaiseraugst, Switzerland) and tap water. The animal rooms were controlled for temperature (24° C.), humidity (55%), and light (12-h light-dark cycle). The animals were randomized into four groups. EGCG and RK were administered as feed-ad-mix. Corn cellulose (2% of diet) served as a carrier substance for EGCG and RK as well as a placebo when used alone. Group 1 received placebo, group 2 received EGCG at a dose of 1400 mg/kg body weight (BW)/day, group 3 received RK at a dose of 1400 mg/kg BW/day, and group 4 received the combination of EGCG and RK at a doses of 1400 and 1400 mg/kg BW/day, respectively. Body weight and food intake were determined over the course of the study. All data are expressed as means for animals in each diet group. There was no difference in food intake between the groups over the study period. […] The decrease in body weight in comparison to the control group caused by each treatment was calculated (data are shown in Table 2). The expected treatment effect of the combined therapy with EGCG and RK was calculated by the sum of the effects exerted by monotherapy with EGCG or RK. The synergistic factor (SF) is defined as the quotient of the observed effect and the expected effect. If SF>1, a synergistic effect was exerted by the combined treatment.

[2] = test system: C57BLKS/J db/db mice; assay: 5-week body weight study in db/db mice; type: in vivo; conditions: for Body weight, Initial: baseline, male db/db mice, standard rodent food; for Body weight, Initial / Body weight, Week 2 / Body weight, Week 4: feed-ad-mix 1400 mg/kg BW/day each, group mean; for Body weight decrease, Week 2 / Body weight decrease, Week 4: decrease in comparison to control group, 1400 mg/kg BW/day each
Experimental: The efficacy of the combination of EGCG and RK as well as of both compounds alone on body weight and adiposity was tested in a 5-week study in C57BLKS/J db/db mice (n=8-9/group). This model of late type 2 diabetes with severe hyperglycemia and obesity is widely used to determine the efficacy of anti-diabetic and anti-obesity compounds. Male db/db mice were obtained from Jackson Laboratory (Bar Harbor, Me., USA). Adult mice aged 8 weeks were used in the experiment. Mice were housed individually in plastic cages with bedding and allowed free access to standard rodent food and tap water. The animal rooms were controlled for temperature (24° C.), humidity (55%), and light (12-h light-dark cycle). The animals were randomized into four groups. EGCG and RK were administered as feed-ad-mix. Corn cellulose (2% of diet) served as a carrier substance for EGCG and RK as well as a placebo when used alone. Group 1 received placebo, group 2 received EGCG at a dose of 1400 mg/kg BW/day, group 3 received RI<at a dose of 1400 mg/kg BW/day, and group 4 received the combination of EGCG and RK at a doses of 1400 and 1400 mg/kg BW/day, respectively. Body weight and food intake were determined over the course of the study. All data are expressed as means for animals in each diet group. There was no difference in food intake between the groups over the study period. The decrease in body weight in comparison to the control group caused by each treatment was calculated (data are shown in Table 4). The expected treatment effect of the combined therapy with EGCG and RK was calculated by the sum of the effects exerted by monotherapy with EGCG or RK. The synergistic factor (SF) is defined as the quotient of the observed effect and the expected effect. If SF>1, a synergistic effect was exerted by the combined treatment.

Compound	Body weight compared to control mice (in words) [1]	Body weight, Initial [1]	Body weight decrease, Week 2 [1]	Body weight decrease, Week 4 [1]	Body weight, Week 2 [1]	Body weight, Week 4 [1]	Body weight, Initial [2]	Body weight compared to untreated control (in words), after four weeks of treatment ([2]; db/db mice)	Body weight compared to control mice (in words), week 2 ([2]; db/db mice, week 2)	Body weight decrease, Week 2 ([2]; week 2)	Body weight decrease, Week 4 [2]	Body weight, Week 2 ([2]; week 2, db/db mice)	Body weight, Week 4 ([2]; db/db mice)	Body weight compared to control (in words), during the study period ([2]; db/db mice, whole study period)
O=C(O[C@@H]1Cc2c(O)cc(O)cc2O[C@@H]1c1cc(O)c(O)c(O)c1)c1cc(O)c(O)c(O)c1 [EGCG, epigallocatechin gallate]	significant decrease in body weight	11.4 g	2.7 g	2.2 g	17.7* g	21.4* g	32.2 g	neither EGCG nor RK caused a significant decrease in body weight	significant decrease in body weight	3.0 g	0.8 g	35.7* g	37.7 g	–
CC(=O)CCc1ccc(O)cc1 [RK, 4-(4-hydroxyphenyl)-2-butanone]	significant decrease in body weight	11.5 g	1.6 g	1.5 g	19.0* g	22.1* g	32.5 g	neither EGCG nor RK caused a significant decrease in body weight	–	0.3 g	0.4 g	38.4 g	38.0 g	did not significantly decrease body weight
